Source: US8933230B2, “Phosphorus-containing group-substituted quinoline, its preparation process, medical composition containing the compounds and application” (priority 2011, dated 2015)

What was measured:
Assay in all cases: KinomeScan kinase panel
Type in all cases: binding
CSNK2A2 = target: T1, CSNK2A2 (Homo sapiens, UniProt P19784)
T1 construct: purchased DiscoveRx Corporation (KinomeScan)
Protocol: (§1) In this example, the compound prepared in Example 10, N1-[4-[[7-[[1-(diethoxyphosphorylmethyl)-4-piperidinyl]methoxyl]-6-methoxyl-4-quinolyl]oxyl]-3-fluorophenyl]-N1′-(4-fluorophenyl)cyclopropane-1,1-dicarboxamide is tested for the inhibitory effect in the 442-kinase panel of KinomeScan™ (www.kinomescan.com) from DiscoveRx Corporation (4215 Sorrento Valley Blvd, San Diego, Calif. 92121) at 1000 nM of the compound concentration, the results are shown in the following Table 5:
(§2) For the detailed information of the screening technique, see Fabian, M. A. et al, Nat., Biotechnol. 2005, 23, 329 and Karaman, M. W. et al, Nat., Biotechnol. 2008, 26, 127. It can be seen from the following representative results that, the compound according to the present invention has significant inhibitory effect on kinases including c-Met, KDR or VEGFR2, RET, PDGFR-β, c-KIT, Flt3, MEK5, DDR1, LOK, CSF1R, EPHA7, EPHA8, EPHB6, MKNK2, BLK, HIPK4, HCK, Flt4 and the mutants thereof

EGFR(G719C) = target: T2, EGFR(G719C) (Homo sapiens, UniProt P00533, G719C)
T2 construct: purchased DiscoveRx Corporation (KinomeScan)
Protocol: as §1, §2

BTK = target: T3, BTK (Homo sapiens, UniProt Q06187)
T3 construct: purchased DiscoveRx Corporation (KinomeScan)
Protocol: as §1, §2

[1] = target: T4, RPS6KA5(kin.Dom.1-N-termimal) (Homo sapiens, UniProt O75582)
T4 construct: kin.Dom.1; purchased DiscoveRx Corporation
Protocol: as §1, §2

ACVR2A = target: T5, ACVR2A (Homo sapiens, UniProt P27037)
T5 construct: purchased DiscoveRx Corporation (KinomeScan)
Protocol: as §1, §2

CDK11 = target: T6, CDK11 (Homo sapiens, UniProt Q9BWU1)
T6 construct: purchased DiscoveRx Corporation (KinomeScan)
Protocol: as §1, §2

ACVR1 = target: T7, ACVR1 (Homo sapiens, UniProt Q04771)
T7 construct: purchased DiscoveRx Corporation (KinomeScan)
Protocol: as §1, §2

STK39 = target: T8, STK39 (Homo sapiens, UniProt Q9UEW8)
T8 construct: purchased DiscoveRx Corporation (KinomeScan)
Protocol: as §1, §2

AKT3 = target: T9, AKT3 (Homo sapiens, UniProt Q9Y243)
T9 construct: purchased DiscoveRx Corporation (KinomeScan)
Protocol: as §1, §2

STK16 = target: T10, STK16 (Homo sapiens, UniProt O75716)
T10 construct: purchased DiscoveRx Corporation (KinomeScan)
Protocol: as §1, §2

CDKL2 = target: T11, CDKL2 (Homo sapiens, UniProt Q92772)
T11 construct: purchased DiscoveRx Corporation (KinomeScan)
Protocol: as §1, §2

PAKC-alpha = target: T12, PAKC-alpha (Homo sapiens, UniProt P17612)
T12 construct: purchased DiscoveRx Corporation (KinomeScan)
Protocol: as §1, §2

EGFR = target: T13, EGFR (Homo sapiens, UniProt P00533)
T13 construct: purchased DiscoveRx Corporation (KinomeScan)
Protocol: as §1, §2

YSK1 = target: T14, YSK1 (Homo sapiens, UniProt O00506)
T14 construct: purchased DiscoveRx Corporation (KinomeScan service)
Protocol: as §1, §2

GCN2(kin.dom.2.S808G) = target: T15, GCN2(kin.dom.2.S808G) (Homo sapiens, UniProt Q9P2K8, S808G)
T15 construct: GCN2(kin.dom.2.S808G); purchased DiscoveRx Corporation (KinomeScan)
Protocol: as §1, §2

IGF1R = target: T16, IGF1R (Homo sapiens, UniProt P08069)
T16 construct: purchased DiscoveRx Corporation (KinomeScan)
Protocol: as §1, §2

PIK3CA (H1047Y) = target: T17, PIK3CA (H1047Y) (Homo sapiens, UniProt P42336, H1047Y)
T17 construct: purchased DiscoveRx Corporation (KinomeScan)
Protocol: as §1, §2

IKK-beta = target: T18, IKK-beta (Homo sapiens, UniProt O14920)
T18 construct: purchased DiscoveRx Corporation (KinomeScan)
Protocol: as §1, §2

PRKCQ = target: T19, PRKCQ (Homo sapiens, UniProt Q04759)
T19 construct: purchased DiscoveRx Corporation (KinomeScan)
Protocol: as §1, §2

TTK = target: T20, TTK (Homo sapiens, UniProt P33981)
T20 construct: purchased DiscoveRx Corporation (KinomeScan)
Protocol: as §1, §2

NEK1 = target: T21, NEK1 (Homo sapiens, UniProt Q96PY6)
T21 construct: purchased DiscoveRx Corporation (KinomeScan)
Protocol: as §1, §2

P38-delta = target: T22, P38-delta (Homo sapiens, UniProt O15264)
T22 construct: purchased DiscoveRx Corporation (KinomeScan panel)
Protocol: as §1, §2

AAK1 = target: T23, AAK1 (Homo sapiens, UniProt Q2M2I8)
T23 construct: purchased DiscoveRx Corporation (KinomeScan)
Protocol: as §1, §2

TAOK3 = target: T24, TAOK3 (Homo sapiens, UniProt Q9H2K8)
T24 construct: purchased DiscoveRx Corporation (KinomeScan)
Protocol: as §1, §2

SIK2 = target: T25, SIK2 (Homo sapiens, UniProt Q9H0K1)
T25 construct: purchased DiscoveRx Corporation (KinomeScan)
Protocol: as §1, §2

[2] = target: T26, JAK1(JH2domain-pseudokinase) (Homo sapiens, UniProt P23458)
T26 construct: JAK1(JH2domain-; purchased DiscoveRx Corporation (KinomeScan)
Protocol: as §1, §2

MEK3 = target: T27, MEK3 (Homo sapiens, UniProt P46734)
T27 construct: purchased DiscoveRx Corporation (KinomeScan)
Protocol: as §1, §2

GRK1 = target: T28, GRK1 (Homo sapiens, UniProt Q15835)
T28 construct: purchased DiscoveRx Corporation (KinomeScan)
Protocol: as §1, §2

ROCK1 = target: T29, ROCK1 (Homo sapiens, UniProt Q13464)
T29 construct: purchased DiscoveRx Corporation
Protocol: as §1, §2

DRAK1 = target: T30, DRAK1 (Homo sapiens, UniProt Q9UEE5)
T30 construct: purchased DiscoveRx Corporation (KinomeScan)
Protocol: as §1, §2

ERBB4 = target: T31, ERBB4 (Homo sapiens, UniProt Q15303)
T31 construct: purchased DiscoveRx Corporation (KinomeScan)
Protocol: as §1, §2

MYLK = target: T32, MYLK (Homo sapiens, UniProt Q15746)
T32 construct: purchased DiscoveRx Corporation (KinomeScan)
Protocol: as §1, §2

ERK4 = target: T33, ERK4 (Homo sapiens, UniProt P31152)
T33 construct: purchased DiscoveRx Corporation (KinomeScan)
Protocol: as §1, §2

LRRK2 = target: T34, LRRK2 (Homo sapiens, UniProt Q5S007)
T34 construct: purchased DiscoveRx Corporation (KinomeScan)
Protocol: as §1, §2

YANK1 = target: T35, YANK1 (Homo sapiens, UniProt Q8WU08)
T35 construct: purchased DiscoveRx Corporation (KinomeScan service)
Protocol: as §1, §2

T17 sequence (P42336 whole entry H1047Y): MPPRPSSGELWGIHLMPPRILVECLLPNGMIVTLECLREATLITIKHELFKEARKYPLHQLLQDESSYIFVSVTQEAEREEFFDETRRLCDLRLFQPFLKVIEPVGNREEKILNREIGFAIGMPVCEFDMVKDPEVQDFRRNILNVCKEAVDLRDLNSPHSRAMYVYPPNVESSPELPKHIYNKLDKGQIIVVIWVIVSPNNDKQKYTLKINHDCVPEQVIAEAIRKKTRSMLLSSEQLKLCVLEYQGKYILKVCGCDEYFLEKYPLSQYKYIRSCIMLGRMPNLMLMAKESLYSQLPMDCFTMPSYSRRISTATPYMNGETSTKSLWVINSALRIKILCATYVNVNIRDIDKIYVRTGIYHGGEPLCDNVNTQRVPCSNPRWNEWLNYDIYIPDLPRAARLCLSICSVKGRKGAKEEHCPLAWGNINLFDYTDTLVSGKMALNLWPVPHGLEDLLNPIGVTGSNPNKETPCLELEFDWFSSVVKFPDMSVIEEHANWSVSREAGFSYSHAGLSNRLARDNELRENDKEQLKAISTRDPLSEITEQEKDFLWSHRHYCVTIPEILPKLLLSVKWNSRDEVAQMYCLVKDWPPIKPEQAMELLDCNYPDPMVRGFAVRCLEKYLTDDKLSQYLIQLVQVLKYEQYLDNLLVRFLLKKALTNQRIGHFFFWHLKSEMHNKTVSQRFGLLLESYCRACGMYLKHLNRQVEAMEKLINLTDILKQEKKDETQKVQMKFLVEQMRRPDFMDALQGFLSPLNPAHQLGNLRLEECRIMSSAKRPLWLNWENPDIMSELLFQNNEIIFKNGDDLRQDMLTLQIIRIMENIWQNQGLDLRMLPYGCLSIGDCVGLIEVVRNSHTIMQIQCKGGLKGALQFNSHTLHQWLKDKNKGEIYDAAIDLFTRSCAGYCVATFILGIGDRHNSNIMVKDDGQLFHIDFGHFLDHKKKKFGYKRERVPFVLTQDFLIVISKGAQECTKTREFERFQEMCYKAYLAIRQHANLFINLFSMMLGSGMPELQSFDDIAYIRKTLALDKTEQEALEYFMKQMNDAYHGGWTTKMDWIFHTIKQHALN
T29 sequence (Q13464 whole entry): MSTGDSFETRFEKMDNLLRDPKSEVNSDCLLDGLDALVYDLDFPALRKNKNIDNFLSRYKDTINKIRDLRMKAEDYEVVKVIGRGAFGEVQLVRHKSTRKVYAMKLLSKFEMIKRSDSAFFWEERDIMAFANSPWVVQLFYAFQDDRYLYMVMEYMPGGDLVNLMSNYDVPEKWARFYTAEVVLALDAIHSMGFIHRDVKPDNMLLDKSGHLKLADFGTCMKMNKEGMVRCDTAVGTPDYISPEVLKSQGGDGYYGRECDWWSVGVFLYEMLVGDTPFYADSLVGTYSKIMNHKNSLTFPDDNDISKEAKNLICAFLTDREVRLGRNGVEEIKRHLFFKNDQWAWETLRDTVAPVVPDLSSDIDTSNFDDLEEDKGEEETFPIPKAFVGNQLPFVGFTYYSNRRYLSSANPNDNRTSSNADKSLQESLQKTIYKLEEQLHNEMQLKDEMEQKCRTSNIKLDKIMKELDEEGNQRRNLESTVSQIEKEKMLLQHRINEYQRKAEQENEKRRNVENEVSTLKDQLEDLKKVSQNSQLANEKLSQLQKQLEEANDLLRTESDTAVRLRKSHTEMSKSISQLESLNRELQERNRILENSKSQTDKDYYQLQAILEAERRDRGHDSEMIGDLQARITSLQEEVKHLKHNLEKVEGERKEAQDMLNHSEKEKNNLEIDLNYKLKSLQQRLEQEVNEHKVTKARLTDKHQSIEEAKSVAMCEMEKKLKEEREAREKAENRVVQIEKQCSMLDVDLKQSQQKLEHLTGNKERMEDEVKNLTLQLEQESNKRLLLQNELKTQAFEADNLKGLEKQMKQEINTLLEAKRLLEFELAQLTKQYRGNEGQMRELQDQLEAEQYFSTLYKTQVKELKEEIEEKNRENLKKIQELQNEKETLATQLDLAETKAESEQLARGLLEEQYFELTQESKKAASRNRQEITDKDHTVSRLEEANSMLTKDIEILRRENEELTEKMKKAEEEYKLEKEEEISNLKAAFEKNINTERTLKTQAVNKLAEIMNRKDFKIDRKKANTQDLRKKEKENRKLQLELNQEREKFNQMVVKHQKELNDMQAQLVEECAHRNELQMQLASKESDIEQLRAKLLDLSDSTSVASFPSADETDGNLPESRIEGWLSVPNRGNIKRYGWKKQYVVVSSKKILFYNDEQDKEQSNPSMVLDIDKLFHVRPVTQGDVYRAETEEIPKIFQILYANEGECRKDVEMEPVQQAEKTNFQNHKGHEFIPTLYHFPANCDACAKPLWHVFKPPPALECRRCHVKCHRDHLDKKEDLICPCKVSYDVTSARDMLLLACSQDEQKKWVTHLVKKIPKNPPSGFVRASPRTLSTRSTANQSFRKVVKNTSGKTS
T33 sequence (P31152 whole entry): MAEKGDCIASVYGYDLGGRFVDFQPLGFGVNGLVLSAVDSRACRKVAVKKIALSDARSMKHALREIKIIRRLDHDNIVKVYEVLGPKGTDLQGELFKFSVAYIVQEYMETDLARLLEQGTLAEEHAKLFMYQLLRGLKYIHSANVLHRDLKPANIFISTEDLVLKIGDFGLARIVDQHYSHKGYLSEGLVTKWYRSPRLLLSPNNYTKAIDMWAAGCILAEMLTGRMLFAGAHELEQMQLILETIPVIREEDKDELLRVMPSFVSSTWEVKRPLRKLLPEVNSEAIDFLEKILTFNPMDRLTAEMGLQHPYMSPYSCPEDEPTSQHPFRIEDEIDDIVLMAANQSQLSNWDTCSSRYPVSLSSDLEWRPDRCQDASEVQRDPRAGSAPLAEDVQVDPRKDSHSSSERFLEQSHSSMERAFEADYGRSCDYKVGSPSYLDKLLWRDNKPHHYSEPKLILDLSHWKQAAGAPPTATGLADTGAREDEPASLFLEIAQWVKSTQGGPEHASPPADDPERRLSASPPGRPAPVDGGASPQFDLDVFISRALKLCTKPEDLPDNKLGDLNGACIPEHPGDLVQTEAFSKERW
T18 sequence (O14920 whole entry): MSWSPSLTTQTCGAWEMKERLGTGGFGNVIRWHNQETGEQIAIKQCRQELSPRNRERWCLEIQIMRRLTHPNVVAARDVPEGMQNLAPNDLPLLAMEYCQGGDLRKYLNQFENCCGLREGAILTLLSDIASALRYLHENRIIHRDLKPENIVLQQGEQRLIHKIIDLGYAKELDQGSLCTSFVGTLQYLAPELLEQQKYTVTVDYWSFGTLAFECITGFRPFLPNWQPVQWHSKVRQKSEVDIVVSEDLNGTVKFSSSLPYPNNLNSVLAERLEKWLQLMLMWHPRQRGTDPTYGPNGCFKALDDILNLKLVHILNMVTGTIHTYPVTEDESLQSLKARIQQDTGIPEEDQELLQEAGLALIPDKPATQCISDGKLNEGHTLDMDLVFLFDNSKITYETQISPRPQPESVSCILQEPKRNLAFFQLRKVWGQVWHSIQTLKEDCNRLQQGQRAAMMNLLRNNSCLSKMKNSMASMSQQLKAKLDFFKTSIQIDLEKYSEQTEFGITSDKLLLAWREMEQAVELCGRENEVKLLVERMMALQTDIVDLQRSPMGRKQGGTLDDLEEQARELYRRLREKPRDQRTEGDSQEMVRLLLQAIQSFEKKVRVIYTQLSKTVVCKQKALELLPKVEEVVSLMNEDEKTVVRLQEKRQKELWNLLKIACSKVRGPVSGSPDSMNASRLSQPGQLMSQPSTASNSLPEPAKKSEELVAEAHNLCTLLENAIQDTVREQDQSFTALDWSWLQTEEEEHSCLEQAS
T16 sequence (P08069 31-1367): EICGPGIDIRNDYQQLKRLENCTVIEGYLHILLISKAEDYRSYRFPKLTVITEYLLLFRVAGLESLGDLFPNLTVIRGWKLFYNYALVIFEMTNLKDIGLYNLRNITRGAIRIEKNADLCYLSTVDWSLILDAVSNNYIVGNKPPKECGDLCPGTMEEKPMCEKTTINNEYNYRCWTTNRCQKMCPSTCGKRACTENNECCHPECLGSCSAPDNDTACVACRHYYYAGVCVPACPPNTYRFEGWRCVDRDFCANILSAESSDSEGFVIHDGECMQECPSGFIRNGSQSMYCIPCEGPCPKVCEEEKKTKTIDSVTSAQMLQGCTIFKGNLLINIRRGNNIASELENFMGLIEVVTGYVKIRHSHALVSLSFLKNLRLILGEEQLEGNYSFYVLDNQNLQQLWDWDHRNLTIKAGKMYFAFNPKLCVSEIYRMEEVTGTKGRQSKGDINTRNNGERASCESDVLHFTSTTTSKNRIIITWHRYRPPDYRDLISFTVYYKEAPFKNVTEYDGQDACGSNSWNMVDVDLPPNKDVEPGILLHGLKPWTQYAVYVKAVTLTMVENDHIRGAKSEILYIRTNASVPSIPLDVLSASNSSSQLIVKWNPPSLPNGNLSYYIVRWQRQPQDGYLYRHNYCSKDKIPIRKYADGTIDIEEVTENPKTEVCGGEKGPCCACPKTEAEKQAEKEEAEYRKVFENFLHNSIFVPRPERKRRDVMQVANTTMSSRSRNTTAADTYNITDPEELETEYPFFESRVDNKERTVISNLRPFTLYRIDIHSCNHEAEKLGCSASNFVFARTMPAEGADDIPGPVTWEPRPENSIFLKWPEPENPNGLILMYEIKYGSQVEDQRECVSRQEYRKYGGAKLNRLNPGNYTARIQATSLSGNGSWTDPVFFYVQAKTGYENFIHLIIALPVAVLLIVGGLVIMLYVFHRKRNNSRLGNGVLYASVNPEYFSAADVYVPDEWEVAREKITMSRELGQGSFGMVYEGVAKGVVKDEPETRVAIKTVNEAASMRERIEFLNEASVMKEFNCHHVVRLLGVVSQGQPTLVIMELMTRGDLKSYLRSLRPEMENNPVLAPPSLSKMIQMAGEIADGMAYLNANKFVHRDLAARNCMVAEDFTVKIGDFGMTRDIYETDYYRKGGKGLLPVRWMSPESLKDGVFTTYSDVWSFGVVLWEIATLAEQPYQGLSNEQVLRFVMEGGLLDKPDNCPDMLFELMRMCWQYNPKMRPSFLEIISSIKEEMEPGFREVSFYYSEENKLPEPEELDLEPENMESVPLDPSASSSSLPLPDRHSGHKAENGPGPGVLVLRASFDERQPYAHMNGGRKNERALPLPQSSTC

CCOP(=O)(CN1CCC(COc2cc3nccc(Oc4ccc(NC(=O)C5(C(=O)Nc6ccc(F)cc6)CC5)cc4F)c3cc2OC)CC1)OCC [Example 10, N1-[4-[[7-[[1-(diethoxyphosphorylmethyl)-4-piperidinyl]methoxyl]-6-methoxyl-4-quinolyl]oxyl]-3-fluorophenyl]-N1′-(4-fluorophenyl)cyclopropane-1,1-dicarboxamide]
% Ctrl@1000 nM (CSNK2A2): 100 % Ctrl | % Ctrl@1000 nM (EGFR(G719C)): 75 % Ctrl | % Ctrl@1000 nM (BTK): 51 % Ctrl | % Ctrl@1000 nM [1]: 100 % Ctrl | % Ctrl@1000 nM (ACVR2A): 100 % Ctrl | % Ctrl@1000 nM (CDK11): 67 % Ctrl | % Ctrl@1000 nM (ACVR1): 100 % Ctrl | % Ctrl@1000 nM (STK39): 100 % Ctrl | % Ctrl@1000 nM (AKT3): 100 % Ctrl | % Ctrl@1000 nM (STK16): 77 % Ctrl | % Ctrl@1000 nM (CDKL2): 100 % Ctrl | % Ctrl@1000 nM (PAKC-alpha): 100 % Ctrl | % Ctrl@1000 nM (EGFR): 100 % Ctrl | % Ctrl@1000 nM (YSK1): 57 % Ctrl | % Ctrl@1000 nM (GCN2(kin.dom.2.S808G)): 100 % Ctrl | % Ctrl@1000 nM (IGF1R): 94 % Ctrl | % Ctrl@1000 nM (PIK3CA (H1047Y)): 63 % Ctrl | % Ctrl@1000 nM (IKK-beta): 100 % Ctrl | % Ctrl@1000 nM (PRKCQ): 100 % Ctrl | % Ctrl@1000 nM (TTK): 84 % Ctrl | % Ctrl@1000 nM (NEK1): 100 % Ctrl | % Ctrl@1000 nM (P38-delta): 53 % Ctrl | % Ctrl@1000 nM (AAK1): 91 % Ctrl | % Ctrl@1000 nM (TAOK3): 100 % Ctrl | % Ctrl@1000 nM (SIK2): 100 % Ctrl | % Ctrl@1000 nM [2]: 100 % Ctrl | % Ctrl@1000 nM (MEK3): 100 % Ctrl | % Ctrl@1000 nM (GRK1): 100 % Ctrl | % Ctrl@1000 nM (ROCK1): 100 % Ctrl | % Ctrl@1000 nM (DRAK1): 100 % Ctrl | % Ctrl@1000 nM (ERBB4): 100 % Ctrl | % Ctrl@1000 nM (MYLK): 100 % Ctrl | % Ctrl@1000 nM (ERK4): 100 % Ctrl | % Ctrl@1000 nM (LRRK2): 100 % Ctrl | % Ctrl@1000 nM (YANK1): 100 % Ctrl
